Data from BindingDB's records for doi:10.7270/Q2ZC817P (The Scripps Research Institute Molecular Screening Center, 2007).
Where a name gives a salt, the structure may show the parent alone.

Target: Sphingosine 1-phosphate receptor 1 (Homo sapiens, UniProt P21453)
Assay: S1P1 agonism potentiation – cell-based, potentiator mode, 60K MLSMR set, dose response (AID 466)
Conditions: not given

Sequence of Sphingosine 1-phosphate receptor 1 (P21453 whole entry): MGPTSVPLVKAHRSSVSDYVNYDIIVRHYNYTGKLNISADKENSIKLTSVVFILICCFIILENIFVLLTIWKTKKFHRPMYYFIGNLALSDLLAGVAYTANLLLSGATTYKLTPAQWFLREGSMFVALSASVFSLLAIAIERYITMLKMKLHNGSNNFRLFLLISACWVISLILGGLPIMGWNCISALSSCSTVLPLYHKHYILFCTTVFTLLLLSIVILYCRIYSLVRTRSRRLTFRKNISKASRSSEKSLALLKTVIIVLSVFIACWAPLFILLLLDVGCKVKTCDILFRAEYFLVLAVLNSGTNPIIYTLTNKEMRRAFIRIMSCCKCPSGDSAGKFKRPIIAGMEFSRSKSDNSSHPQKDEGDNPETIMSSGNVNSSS

First: COc1ccccc1N=C(N)Nc1nc(CSc2ccc(C)cc2)cc(=O)[nH]1 [1-(2-methoxyphenyl)-2-[6-[[(4-methylphenyl)thio]methyl]-4-oxo-1H-pyrimidin-2-yl]guanidine]
Second: COc1ccc(C(c2c(O)ccc3ccccc23)N2CCOCC2)c(OC)c1 (configuration not stated) [1-[(2,4-dimethoxyphenyl)-(4-morpholinyl)methyl]-2-naphthalenol]
The EC50 of the first is 2.4-fold higher: 9.15 µM for the first, 3.83 µM for the second.

`C=CCN1/C(=N/c2cccnc2)SCC1(O)c1ccc(C)cc1` (configuration not stated) [(2E)-3-allyl-4-(4-methylphenyl)-2-(pyridin-3-ylimino)-1,3-thiazolidin-4-ol] and `CCCC(=O)Nc1ccc(-c2nc3cc(C)ccc3o2)cc1` [MLS000061826] are within 1.5-fold of each other in EC50: 7.92 µM for the first, 6.36 µM for the second.

First: Cc1ccccc1-c1nnc(SCc2ccccc2F)o1 [2-[(2-fluorobenzyl)thio]-5-(2-methylphenyl)-1,3,4-oxadiazole]
Second: Cc1ccccc1-c1noc(-c2ccc(O)cc2)n1 [4-[3-(2-methylphenyl)-2H-1,2,4-oxadiazol-5-ylidene]-1-cyclohexa-2,5-dienone]
The EC50 of the first is 6.5-fold lower: 1.27 µM for the first, 8.25 µM for the second. The first is the more potent here.

Going from `CCn1nc(-c2ccccc2)nc2c(=O)n(C)c(=O)nc1-2` [1-Ethyl-6-methyl-3-phenyl-1H-pyrimido[5,4-e][1,2,4]triazine-5,7-dione] to `CCOc1ccc(-c2nc(-c3ccncc3)no2)cc1OCC` [4-[5-(3,4-diethoxyphenyl)-1,2,4-oxadiazol-3-yl]pyridine], the EC50 falls from 4.29 µM to 0.226 µM (19-fold). The second is the more potent here.

Compared with `CCOC(=O)c1cnc(-n2nc(C)cc2C)nc1NC1CCCCC1` [4-(cyclohexylamino)-2-(3,5-dimethyl-1-pyrazolyl)-5-pyrimidinecarboxylic acid ethyl ester], `O=C(NCc1ccc2c(c1)OCO2)C1CC(=O)N(C2CCCCCCC2)C1` (configuration not stated) [1-cyclooctyl-5-keto-N-piperonyl-pyrrolidine-3-carboxamide] is higher in EC50: 5.91 µM for the first, over 95 µM for the second. The first is the more potent here.

Going from `Nc1ccc(N2CCOCC2)c(Cl)c1` [(3-chloro-4-morpholino-phenyl)amine] to `Cc1cc(C(=O)N2CCN(C(c3ccccc3)c3ccccc3)CC2)on1` [(4-benzhydrylpiperazin-1-yl)-(3-methyl-1,2-oxazol-5-yl)methanone], the EC50 rises from 0.981 µM to 5.65 µM (5.8-fold).

`O=S(=O)(C/C(=C/CO)S(=O)(=O)c1ccccc1)c1ccccc1` [(Z)-3,4-bis(benzenesulfonyl)but-2-en-1-ol] and `CC(Oc1ccccc1Br)C(=O)N1CCc2ccccc21` (configuration not stated) [1-[2-(2-bromophenoxy)propanoyl]indoline] are within 1.5-fold of each other in EC50: 8.68 µM for the first, 7.23 µM for the second.

`O=C(Nc1ccc(S(=O)(=O)NCc2ccco2)cc1)c1ccc2ccccc2n1` [MLS000098663] and `CCN(C1CCCCC1)S(=O)(=O)c1ccc(S(=O)(=O)NCc2ccncc2)cc1` [4-N-cyclohexyl-4-N-ethyl-1-N-(pyridin-4-ylmethyl)benzene-1,4-disulfonamide] are within 1.5-fold of each other in EC50: 6.51 µM for the first, 7.02 µM for the second.

Compared with `CC(C)Oc1cc(O)c2c(=O)c(-c3ccc(O)cc3)coc2c1` [3-(4-hydroxyphenyl)-5-oxidanyl-7-propan-2-yloxy-chromen-4-one], `CCOc1ccc(C(C)=O)cc1-n1c(O)c2c(c1O)C1C=CC2O1` [MLS000087730] is 3.9-fold higher in EC50: 2.78 µM for the first, 10.8 µM for the second.

Compared with `CCOc1ccc(-c2nnc(-c3ccco3)o2)cc1OCC` [2-(3,4-Diethoxy-phenyl)-5-furan-2-yl-[1,3,4]oxadiazole], `CCOc1ccc(-c2nnc(-c3cccs3)o2)cc1OCC` [2-(3,4-Diethoxy-phenyl)-5-thiophen-2-yl-[1,3,4]oxadiazole] is 5.4-fold higher in EC50: 1.04 µM for the first, 5.58 µM for the second.

`Cc1cc(C)cc(-c2nc(-c3ccncc3)no2)c1` [5-(3,5-dimethylphenyl)-3-(4-pyridyl)-1,2,4-oxadiazole] and `COc1ccc(-c2noc(-c3cc(C)cc(C)c3)n2)cc1OC` [3-(3,4-dimethoxyphenyl)-5-(3,5-dimethylphenyl)-1,2,4-oxadiazole] are within 1.5-fold of each other in EC50: 1.44 µM for the first, 1.01 µM for the second.

`CC(C)N1C(=O)CCC1C(=O)N1CCC(Cc2ccccc2)CC1` (configuration not stated) [5-(4-benzylpiperidine-1-carbonyl)-1-isopropyl-2-pyrrolidone] and `CCSc1nnc(NC(=O)C(Cc2ccccc2)n2cccc2)s1` (configuration not stated) [MLS000119034] cannot be ordered by EC50: over 95 µM for the first, over 30 µM for the second.

First: CCc1ccc(-c2nc(-c3ccncc3)no2)cc1 [5-(4-ethylphenyl)-3-(4-pyridyl)-1,2,4-oxadiazole]
Second: CCOc1ccc(-c2nnc(-c3cccnc3)o2)cc1OCC [2-(3,4-diethoxyphenyl)-5-(3-pyridinyl)-1,3,4-oxadiazole]
The EC50 of the first is 1.9-fold higher: 4.41 µM for the first, 2.33 µM for the second.

`CCCc1cc(C(=O)Nc2sc3c(c2C#N)CCC3)no1` [MLS000116386] and `Cc1ccc2c(c1)N(CC(=O)Nc1ccc3c(c1)OCCO3)C(=O)CO2` [MLS000074457] cannot be ordered by EC50: over 95 µM for the first, over 95 µM for the second.

`Fc1ccc(COc2ccc(C=Nn3cnnc3)cc2)cc1` [1-[4-[(4-fluorophenyl)methoxy]phenyl]-N-(1,2,4-triazol-4-yl)methanimine] and `Nc1nonc1C(=O)NCCNCc1cc(Br)ccc1OCc1ccc(F)cc1` [4-amino-N-[2-[[5-bromo-2-(4-fluorobenzyl)oxy-benzyl]amino]ethyl]furazan-3-carboxamide;hydrochloride] are within 1.5-fold of each other in EC50: 6.53 µM for the first, 7.81 µM for the second.

Same assay, conditions: inactive by the depositor's call

In order of falling EC50:
1. Cc1ccc(S(=O)(=O)n2nc(C)c(Br)c2C)c(C)c1C [4-bromanyl-3,5-dimethyl-1-(2,3,4-trimethylphenyl)sulfonyl-pyrazole]  83.1 µM
2. CCN(CC)S(=O)(=O)c1cc(C(=O)Nc2ccncc2)ccc1Cl [4-chloranyl-3-(diethylsulfamoyl)-N-pyridin-4-yl-benzamide]  44.2 µM
3. COc1ccccc1-n1nnnc1SCc1cc2c(cc1Br)OCO2 [5-[(6-bromanyl-1,3-benzodioxol-5-yl)methylsulfanyl]-1-(2-methoxyphenyl)-1,2,3,4-tetrazole]  36.2 µM
4. CCn1nc(-c2cccs2)nc2c(=O)n(C)c(=O)nc1-2 [1-ethyl-6-methyl-3-thiophen-2-yl-pyrimido[5,4-e][1,2,4]triazine-5,7-dione]  31.8 µM
5. Oc1c(C(c2ccco2)N2CCN(C(c3ccccc3)c3ccccc3)CC2)sc2ncnn12 (configuration not stated) [5-[(4-benzhydrylpiperazin-1-yl)-(furan-2-yl)methyl]-[1,3]thiazolo[3,2-b][1,2,4]triazol-6-ol]  20.1 µM
6. COc1cccc(-c2csc(N3CCN(CC(=O)Nc4ccc5c(c4)OCO5)CC3)n2)c1 [MLS000070935]  17.9 µM
7. CC(=O)Nc1ccc(S(=O)(=O)N2CCN(c3cccc(C)c3C)CC2)cc1 [MLS000115810]  16.7 µM
8. Cc1nn(Cc2ccc(Cl)cc2)c(C)c1NC(=O)c1cc(-c2ccco2)on1 [MLS000087233]  14.1 µM
9. CCCn1c(CNc2ccc(Br)cc2)nc2ccccc21 [(4-bromophenyl)-[(1-propylbenzimidazol-2-yl)methyl]amine]  12.8 µM
10. Cc1cccc(-c2nc(CSCC(=O)N3CCN(c4ccccn4)CC3)c(C)o2)c1 [1-[({[5-methyl-2-(3-methylphenyl)-1,3-oxazol-4-yl]methyl}thio)acetyl]-4-pyridin-2-ylpiperazine]  12.2 µM
11. COc1ccc(-n2c(C)cc(C(=O)COC(=O)Cn3cnc4ccccc43)c2C)cc1 [2-(1-benzimidazolyl)acetic acid [2-[1-(4-methoxyphenyl)-2,5-dimethyl-3-pyrrolyl]-2-oxoethyl] ester]  11.6 µM
12. Cc1ccc(C(=O)Nc2nc(COc3ccccc3)cs2)s1 [5-methyl-N-[4-(phenoxymethyl)-1,3-thiazol-2-yl]thiophene-2-carboxamide]  11.2 µM
